Where a name gives a salt, the structure may show the parent alone.

The target in the first assay is CCR8 (Homo sapiens, UniProt P51685). In words: Tango assay (Tango-CCR8-Gal4-CHO-K1 cells, CCL1-stimulated, ONE-Glo luminescence). The note with it: Tango Assay IC50, Inhibition of CCR8 Tango cell in vitro.
Chain of CCR8 (P51685 whole entry, the tested form may be a part): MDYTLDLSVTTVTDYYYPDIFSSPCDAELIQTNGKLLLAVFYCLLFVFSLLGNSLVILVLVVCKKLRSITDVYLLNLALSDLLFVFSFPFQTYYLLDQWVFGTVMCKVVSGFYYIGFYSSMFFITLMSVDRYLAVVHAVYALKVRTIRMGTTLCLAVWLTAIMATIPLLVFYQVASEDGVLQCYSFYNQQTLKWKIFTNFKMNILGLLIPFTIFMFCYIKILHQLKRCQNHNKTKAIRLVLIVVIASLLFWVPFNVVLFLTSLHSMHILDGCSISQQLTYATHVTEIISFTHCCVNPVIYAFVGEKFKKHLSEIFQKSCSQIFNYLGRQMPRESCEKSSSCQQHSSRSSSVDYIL
The term IC50 denotes the midpoint of a concentration-inhibition curve. The compound `Cc1ccccc1C(=O)Nc1ccc(S(=O)(=O)NC(C)C2CCCCN2C(=O)OC(C)(C)C)c2ccccc12` (single isomer, unassigned) [Compound 67, tert-butyl 2-(1-(4-(2-methylbenzamido)naph-thalene-1-sulfonamido)ethyl)piper-idine-1-carboxylate] came in with an IC50 of 0.283 µM.

Regarding `Cc1ccccc1C(=O)Nc1ccc(S(=O)(=O)NC2CCc3nc(N)sc3C2)c2ccccc12` (stereo not shown) [Compound 85, N-(4-(N-(2-amino-4,5,6,7-tetrahydrobenzo[d]thia-zol-6-yl)sulfamoyl)naphthalen-1-yl)-2-methylbenzamide], the IC50 is 0.351 µM.

Consider `CCCC(=O)N1CCC(NS(=O)(=O)c2ccc(N)cc2)CC1` [Compound 119, 4-amino-N-(1-butyrylpiperidin-4-yl)benzenesulfonamide], for which the half-inhibitory concentration (IC50) was more than 10 µM.

As for `Cc1ccccc1C(=O)Nc1ccc(S(=O)(=O)NC(C)CC2CCCCC2)c2ccccc12` (stereo not shown) [Compound 75, N-(4-(N-(1-cyclohexylpropan-2-yl)sulfamoyl)naphthalen-1-yl)-2-methylbenzamide], the IC50 worked out at 0.0076 µM.

The compound `Cc1cc(S(=O)(=O)N[C@H](C)C2CCNCC2)ccc1NC(=O)c1nccs1` [Compound 253A, (R)-N-(2-methyl-4-(N-(1-(piperidin-4-yl)ethyl)sulfamoyl)phenyl)thiazole-2-carboxamide hydrochloride] yielded an IC50 of 0.851 µM.

In turn, `Cc1ccccc1C(=O)Nc1ccc(S(=O)(=O)Nc2ccc3c(c2)CCN(C(=O)CN(C)C)C3)c2ccccc12` [Compound 42, N-(4-(N-(2-(2-(dimethylamino)acetyl)-1,2,3,4-tetrahydroisoquinolin-6-yl)sulfamoyl)naphthalen-1-yl)-2-methylbenzamide] yielded an IC50 of more than 10 µM.

Take `CCN1CCCN(C(c2cccc(NS(=O)(=O)c3ccc4ccccc4c3)c2)C(F)(F)F)CC1` (stereo not shown) [Compound 279, N-(3-(1-(4-ethyl-1,4-diazepan-1-yl)-2,2,2-trifluoroethyl)phenyl)naphthalene-2-sulfonamide]: the IC50 is more than 100 µM.

As for `Cc1ccccc1C(=O)Nc1ccc(S(=O)(=O)NC(C)(C)c2ccccc2)c2ccccc12` [Compound 283, 2-methyl-N-(4-(N-(2-phenylpropan-2-yl)sulfamoyl)naphthalen-1-yl)benzamide], the concentration for half-maximal inhibition (IC50) is more than 100 µM.

`CC(=O)N1CCCC(C(C)NS(=O)(=O)c2ccc(NC(=O)c3ccccc3C)c3ccccc23)C1` (single isomer, unassigned) [Compound 18B, N-(4-(N-(1-(1-acetylpiperidin-3-yl)ethyl)sulfamoyl)naph-thalen-1-yl)-2-methylbenzamide] registered an IC50 of 0.1 µM.

Take `Cc1ccccc1C(=O)Nc1ccc(S(=O)(=O)N[C@H](C)C2CCNCC2)c(Cl)c1Cl` [Compound 244A, (R)-N-(2,3-dichloro-4-(N-(1-(piperidin-4-yl)ethyl)sulfamoyl)phen-yl)-2-methylbenzamide hydrochloride]: the 50% inhibitory concentration (IC50) came to 0.104 µM.

Turning to `CCCC(=O)N1CCC(CNS(=O)(=O)c2ccc(NC(=O)c3ccccc3C)c3ccccc23)C1` (stereo not shown) [Compound 15, N-(4-(N-((1-butyrylpyrrolidin-3-yl)methyl)sulfamoyl)naphthalen-1-yl)-2-methylbenzamide], the IC50 is more than 10 µM.

In the case of `Cc1cc(S(=O)(=O)N[C@@H](C)C2CCN(C)CC2)c(F)cc1NC(=O)c1ccccc1C` [Compound 262A, (S)-N-(5-fluoro-2-methyl-4-(N-(1-(1-methylpiperidin-4-yl)ethyl)sulfamoyl)phenyl)-2-methylbenzamide], the IC50 is more than 100 µM.

For the compound `Cc1ccccc1C(=O)Nc1ccc(S(=O)(=O)NCc2ccccc2)c2ccccc12` [Compound 281, N-(4-(N-benzylsulfamoyl)naphthalen-1-yl)-2-methylbenzamide], the IC50 is more than 100 µM.

On to `Cc1cc(S(=O)(=O)N[C@H](C)C2CC[N+](C)(C)CC2)ccc1NC(=O)c1ccccc1C` [Compound 301, (R)-1,1-dimethyl-4-(1-((3-methyl-4-(2-methylbenzamido)phenyl)sulfonamido)ethyl)piperidin-1-ium.chloride.], for which inhibition was half-maximal at 0.102 µM (IC50).

In turn, `Cc1ccccc1NC(=O)c1ccc(S(=O)(=O)N[C@H](C)C2CCN(C(=O)OC(C)(C)C)CC2)cc1C` [Compound 112, (R)-tert-butyl 4-(1-(3-methyl-4-(o-tolylcarbamoyl)phenyl-sulfonamido)ethyl)piperi-dine-1-carboxylate] yielded an IC50 of more than 10 µM.

`CC(NS(=O)(=O)c1ccc(-c2cc3ccccc3[nH]2)c2ccccc12)C1CCCCC1` (stereo not shown) [Compound 149, N-(1-cyclohexylethyl)-4-(1H-indol-2-yl)naphthalene-1-sulfonamide] had an IC50 of more than 10 µM.

Take `Cc1ccccc1C(=O)Nc1ccc(S(=O)(=O)Nc2ccc3c(c2)CN(CCCN(C)C)C3)c2ccccc12` [Compound 35, N-(4-(N-(2-(3-(dimethylamino)propyl)isoindolin-5-yl)sulfamoyl)naphthalen-1-yl)-2-methylbenzamide]: the 50% inhibitory concentration (IC50) was more than 10 µM.

Turning to `Cc1ccccc1C(=O)Nc1ccc(S(=O)(=O)Nc2ccc3c(c2)CN(C(=O)CN(C)C)CC3)c2ccccc12` [Compound 41, N-(4-(N-(2-(2-(dimethylamino)acetyl)-1,2,3,4-tetrahydroisoquinolin-7-yl)sulfamoyl)naphthalen-1-yl)-2-methylbenzamide], the IC50 was more than 10 µM.

`CN(C)CCN1CCOc2cc(NS(=O)(=O)c3ccc4ccccc4c3)ccc2C1=O` [Compound 280, N-(4-(2-(dimethylamino)ethyl)-5-oxo-2,3,4,5-tetrahydrobenzo[f][1,4]oxazepin-8-yl)naphthalene-2-sulfonamide]: the IC50 was more than 100 µM.

For `Cc1cc(S(=O)(=O)NC(C)C2CCNCC2)ccc1NC(=O)c1ccccc1C` (stereo not shown) [Compound 167A, 2-methyl-N-(2-methyl-4-(N-(1-(piperidin-4-yl)ethyl)sulfamoyl)phen-yl)benzamide hydrochloride], the midpoint of inhibition, the IC50, lay at 0.046 µM.

In turn, `Cc1ccccc1C(=O)Nc1ccc(S(=O)(=O)NC(C)c2cccc(N)c2)c2ccccc12` (stereo not shown) [Compound 72A, N-(4-(N-(1-(3-aminophenyl)ethyl)sul-famoyl)naphthalen-1-yl)-2-methylbenzamide hydrochloride] showed a half-inhibitory concentration (IC50) of 1.14 µM.

Turning to `CCCN1CCN(c2cccc(C(=O)NS(=O)(=O)c3ccc(NC(=O)c4ccccc4C)c4ccccc34)c2)CC1` [Compound 11, 2-methyl-N-(4-(N-(3-(4-propylpiperazin-1-yl)benzoyl)sulfamoyl)naphthalen-1-yl)benzamide], the IC50 is more than 10 µM.

The compound `CC(=O)N1CCOC(C(C)NS(=O)(=O)c2ccc(NC(=O)c3ccccc3C)c3ccccc23)C1` (stereo not shown) [Compound 86, N-(4-(N-(1-(4-acetylmorpholin-2-yl)ethyl)sulfamoyl)naph-thalen-1-yl)-2-methylbenzamide] registered an IC50 of 2.3 µM.

`Cc1cc(S(=O)(=O)N[C@H](C)C2CCN(C)CC2)ccc1NC(=O)C1CCCCCC1` [Compound 274, (R)-N-(2-methyl-4-(N-(1-(1-methylpiperidin-4-yl)ethyl)sulfamoyl)phenyl) cycloheptane-carboxamide]: the IC50 is 0.013 µM.

On to `Cc1ccccc1C(=O)Nc1ccc(S(=O)(=O)Nc2ccc3c(c2)N(CCN(C)C)CC3)c2ccccc12` [Compound 33, N-(4-(N-(1-(2-(dimethylamino)ethyl)indolin-6-yl)sulfamoyl)naphthalen-1-yl)-2-methylbenzamide], for which the IC50 is more than 10 µM.

`Cc1ccccc1C(=O)Nc1cc(F)c(S(=O)(=O)N[C@@H](C)C2CCN(C)CC2)cc1Cl` [Compound 263A, (S)-N-(2-chloro-5-fluoro-4-(N-(1-(1-methylpiperidin-4-yl)ethyl)sulfamoyl)phenyl)-2-methylbenzamide hydrochloride] gave an IC50 of 0.282 µM.

For `Cc1ccccc1C(=O)Nc1ccc(S(=O)(=O)NC(C)CC2CCNCC2)c2ccccc12` (stereo not shown) [Compound 126, 2-methyl-N-(4-(N-(1-(piperidin-4-yl)propan-2-yl)sulfamoyl)naphtha-len-1-yl)benzamide], the half-inhibitory concentration (IC50) came out at 0.133 µM.

Regarding `COC(=O)CN1CCCC(C(C)NS(=O)(=O)c2ccc(NC(=O)c3ccccc3C)c3ccccc23)C1` (single isomer, unassigned) [Compound 19A, methyl 2-(3-(1-(4-(2-methylbenzamido)naph-thalene-1-sulfonamido)ethyl)piper-idin-1-yl)acetate], the IC50 turned out to be 2.8 µM.

In the case of `Cc1cc(S(=O)(=O)NC(c2ccccc2)C2CCNCC2)ccc1NC(=O)c1ccccc1C` (stereo not shown) [Compound 227A, 2-methyl-N-(2-methyl-4-(N-(phenyl(piperidin-4-yl)methyl)sulfamoyl)phenyl)benzamide], the IC50 was more than 100 µM.

In the case of `CC(NS(=O)(=O)c1ccc2[nH]c(=O)[nH]c(=O)c2c1)C1CC2CCC1CC2` (stereo not shown) [Compound 133, N-(1-(bicyclo[2.2.2]octan-2-yl)ethyl)-2,4-dioxo-1,2,3,4-tetrahydroquinazoline-6-sulfonamide], the IC50 was more than 10 µM.

In turn, `Cc1ccccc1C(=O)Nc1ccc(S(=O)(=O)NC(=O)c2ccccc2N2CCCCC2)c2ccccc12` [Compound 12, 2-methyl-N-(4-(N-(2-(piperidin-1-yl)benzoyl)sulfamoyl)naphthalen-1-yl)benzamide] had an IC50 of more than 10 µM.

Compound `Cc1ccccc1C(=O)Nc1ccc(S(=O)(=O)NC(=O)c2ccccc2N2CCOCC2)c2ccccc12` [Compound 13, 2-methyl-N-(4-(N-(2-morpholinobenzoyl)sul-famoyl)naphthalen-1-yl)benzamide] gave an IC50 of more than 10 µM.

In turn, `Cc1ccccc1C(=O)Nc1c(F)cc(S(=O)(=O)N[C@H](C)C2CCNCC2)cc1Cl` [Compound 304, (R)-N-(2-chloro-6-fluoro-4-(N-(1-(piperidin-4-yl)ethyl)sulfamoyl)phenyl)-2-methylbenzamide hydrochloride] had an IC50 of 0.003 µM.

Still in this assay, the particulars now being: read-out: Tango Assay IC50, Inhibition of CCR8 Tango cell in vitro.
With `Cc1ccccc1C(=O)Nc1ccc(S(=O)(=O)NC(C)C2CCCN(C(=O)[C@H](C)NC(=O)OC(C)(C)C)C2)c2ccccc12` (single isomer, unassigned) [Compound 157B], the 50% inhibitory concentration (IC50) is more than 10 µM.

The record behind these values is US12552753B2, “Methods and compositions for targeting Tregs using CCR8 inhibitors” (Nanjing Immunophage Biomedical Co., Ltd., priority 2020, dated 2026).
